Patent US11464749B2, “Bismuth-thiol compositions and methods of use” (Microbion Corporation, priority 2018, dated 2022)
Values after ≈ are worked out from the molar mass of the structure shown. Each block holds one molecule with its values, some of them ahead of it.

Tests used:
E. faecalis = experiment: Broth microdilution MIC (Example 11); settings: Enterococcus faecalis, VRE, VRE Lev^R Cip^R Ery^R
[1] = system: Staphylococcus aureus (MRSA); experiment: Broth microdilution MIC (Example 11)
S. agalactiae = experiment: Broth microdilution MIC (Example 11); settings: Streptococcus agalactiae
S. pyogenes = experiment: Broth microdilution MIC (Example 11); settings: Streptococcus pyogenes
S. pneumoniae = experiment: Broth microdilution MIC (Example 11); settings: Streptococcus pneumoniae
[2] = system: vancomycin-intermediate Staphylococcus aureus (VISA); experiment: Broth microdilution MIC (Example 12)
Klebsiella pneumoniae = experiment: Broth microdilution MIC (Example 12)
Pseudomonas aeruginosa = experiment: Broth microdilution MIC (Example 12)
Escherichia coli = experiment: Broth microdilution MIC (Example 12)
Acinetobacter baumannii = experiment: Broth microdilution MIC (Example 12)
[3] = MRSA, S. aureus MMX 6311, MRSA Lev^R Cip^R CC^R Ery^R Ox^R

Structure (SMILES): Cc1onc(-c2ccccc2)c1C(=O)N[C@@H]1C(=O)N2[C@@H]1SC(C)(C)[C@@H]2C(=O)O [Oxacillin]
MIC (E. faecalis; E. faecalis MMX 8962): 16 µg/mL (≈ 39.9 µM)
MIC [1, 3]: 32 µg/mL (≈ 79.7 µM)

MIC (S. agalactiae; S. agalactiae MMX 3741, ERY^R CC^R): 8 µg/mL (≈ 10.9 µM)
MIC (S. agalactiae; S. agalactiae MMX 3743, ERY^R CC^R): > 8 µg/mL
MIC (S. agalactiae; S. agalactiae MMX 4077, ERY^R CC^R): > 8 µg/mL
MIC (S. agalactiae; S. agalactiae MMX 4079, ERY^R CC^R Pen^R MEM^R): > 8 µg/mL
MIC (S. agalactiae; S. agalactiae MMX 4086, ERY^R CC^R): > 8 µg/mL
MIC (S. pyogenes; S. pyogenes MMX 3068, Ery^R): > 8 µg/mL
MIC (S. pyogenes; S. pyogenes MMX 3820, ERY^R CLI^R): > 8 µg/mL
MIC (S. pyogenes; S. pyogenes MMX 3919, ERY^R): > 8 µg/mL
MIC (S. pyogenes; S. pyogenes MMX 3929, ERY^R CC^R): > 8 µg/mL
MIC (S. pyogenes; S. pyogenes MMX 5091, ERY^R CC^R): > 8 µg/mL
MIC (E. faecalis; E. faecalis MMX 8960): > 64 µg/mL
MIC (E. faecalis; E. faecalis MMX 8961): > 64 µg/mL
MIC (E. faecalis; E. faecalis MMX 8962): > 64 µg/mL
MIC (S. pneumoniae; ATCC49619, S. pneumoniae MMX 6837 (ATCC 49619), QC): 0.03 µg/mL (≈ 0.0409 µM)
MIC (S. pneumoniae; S. pneumoniae MMX 880, Lev^R SXT^R CC^R Ery^R Pen^R): > 8 µg/mL
MIC (S. pneumoniae; S. pneumoniae MMX 937, Mem^R SXT^R CC^R Ery^R Pen^R): > 8 µg/mL
MIC (S. pneumoniae; S. pneumoniae MMX 3959, CC^R Ery^R): > 8 µg/mL
MIC (S. pneumoniae; S. pneumoniae MMX 5440, Mem^R SXT^R CC^R Ery^R Pen^R): > 8 µg/mL
MIC (S. pneumoniae; S. pneumoniae MMX 5445, Mem^R SXT^R CC^R Ery^R Pen^R): > 8 µg/mL
MIC (S. pneumoniae; S. pneumoniae MMX 8133, Mem^R SXT^R CC^R Ery^R Pen^R): > 8 µg/mL
MIC ([1]; ATCC29213|MRSA|MSSA, S. aureus MMX 101 (ATCC 29213), QC, MSSA): 0.5 µg/mL (≈ 0.681 µM)
MIC ([1]; MRSA, S. aureus MMX 5373, MRSA Lev^R Cip^R CC^R Ery^R Ox^R): > 64 µg/mL
MIC [1, 3]: > 64 µg/mL
MIC ([1]; MRSA, S. aureus MMX 9203, MRSA Lev^R Cip^R Ery^R Ox^R): > 64 µg/mL
MIC ([1]; MRSA, S. aureus MMX 9204, MRSA Lev^R Cip^R Ery^R Ox^R): > 64 µg/mL
MIC ([1]; MRSA, S. aureus MMX 9205, MRSA Lev^R Cip^R CC^R Ery^R Ox^R): > 64 µg/mL
Structure (SMILES): CC[C@H]1OC(=O)[C@H](C)[C@@H](O[C@H]2C[C@@](C)(OC)[C@@H](O)[C@H](C)O2)[C@H](C)[C@@H](O[C@@H]2O[C@H](C)C[C@H](N(C)C)[C@H]2O)[C@](C)(O)C[C@@H](C)C(=O)[C@H](C)[C@@H](O)[C@]1(C)O [Erythromycin]

MIC ([2]; S. aureus NRS 1 (hVISA)): 4 µg/mL (≈ 11.1 µM)
MIC ([2]; S. aureus NRS 2): 4 µg/mL (≈ 11.1 µM)
MIC ([2]; S. aureus NRS 3): >8 µg/mL
MIC ([2]; S. aureus NRS 4): 4 µg/mL (≈ 11.1 µM)
MIC ([2]; S. aureus NRS 13): 0.12 µg/mL (≈ 0.332 µM)
MIC ([2]; S. aureus NRS 18): 4 µg/mL (≈ 11.1 µM)
MIC ([2]; S. aureus NRS 22): 8 µg/mL (≈ 22.1 µM)
MIC ([2]; S. aureus NRS 24 (hVISA)): >8 µg/mL
MIC ([2]; S. aureus NRS 27): 8 µg/mL (≈ 22.1 µM)
MIC (Klebsiella pneumoniae; K. pneumoniae ATCC BAA-1705, ESBL/KPC): >8 µg/mL
MIC (Klebsiella pneumoniae; K. pneumoniae ATCC BAA-1705, QC organism (Table 102)): >8 µg/mL
MIC (Klebsiella pneumoniae; K. pneumoniae CDC 112, KPC): 4 µg/mL (≈ 11.1 µM)
MIC (Klebsiella pneumoniae; K. pneumoniae CDC 113, ESBL/KPC): 4 µg/mL (≈ 11.1 µM)
MIC (Klebsiella pneumoniae; K. pneumoniae CDC 115, ESBL/KPC): >8 µg/mL
MIC (Klebsiella pneumoniae; K. pneumoniae CDC 120, ESBL/KPC): >8 µg/mL
MIC (Klebsiella pneumoniae; K. pneumoniae CDC 126, ESBL/KPC): 0.015 µg/mL (≈ 0.0415 µM)
MIC (Klebsiella pneumoniae; K. pneumoniae CDC 129, ESBL/KPC): >8 µg/mL
MIC (Klebsiella pneumoniae; K. pneumoniae CDC 135, ESBL/VIM): >8 µg/mL
MIC (Klebsiella pneumoniae; K. pneumoniae CDC 138, ESBL/NDM): >8 µg/mL
MIC (Klebsiella pneumoniae; K. pneumoniae CDC 158, ESBL/NDM/OXA): 4 µg/mL (≈ 11.1 µM)
MIC (Klebsiella pneumoniae; K. pneumoniae MMX 9029, ESBL): 0.12 µg/mL (≈ 0.332 µM)
MIC (Pseudomonas aeruginosa; P. aeruginosa CDC 230, VIM/OXA): 8 µg/mL (≈ 22.1 µM)
MIC (Pseudomonas aeruginosa; P. aeruginosa CDC 231, KPC/OXA): >8 µg/mL
MIC (Pseudomonas aeruginosa; P. aeruginosa CDC 241, IMP/OXA): 8 µg/mL (≈ 22.1 µM)
MIC (Pseudomonas aeruginosa; P. aeruginosa CDC 246, NDM/OXA): >8 µg/mL
MIC (Pseudomonas aeruginosa; P. aeruginosa CDC 250, NDM/OXA): >8 µg/mL
MIC (Pseudomonas aeruginosa; P. aeruginosa CDC 356, KPC): 0.12 µg/mL (≈ 0.332 µM)
MIC (Pseudomonas aeruginosa; P. aeruginosa CDC 439, IMP): 8 µg/mL (≈ 22.1 µM)
MIC (Pseudomonas aeruginosa; P. aeruginosa CDC 444, VIM): 8 µg/mL (≈ 22.1 µM)
MIC (Pseudomonas aeruginosa; P. aeruginosa CDC 457, VIM): >8 µg/mL
MIC (Pseudomonas aeruginosa; P. aeruginosa CDC 516, KPC/AmpC): 0.25 µg/mL (≈ 0.692 µM)
MIC (Pseudomonas aeruginosa; P. aeruginosa CDC 518, KPC/AmpC): >8 µg/mL
MIC (Escherichia coli; E. coli ATCC 35218, ESBL): ≤0.008 µg/mL
MIC (Escherichia coli; E. coli ATCC 35218, QC organism (Table 102)): ≤0.008 µg/mL
MIC (Escherichia coli; E. coli ATCC BAA-2471, NDM): >8 µg/mL
MIC (Escherichia coli; E. coli CDC 114, ESBL/KPC): 4 µg/mL (≈ 11.1 µM)
MIC (Escherichia coli; E. coli CDC 118, ESBL/NDM): 8 µg/mL (≈ 22.1 µM)
MIC (Escherichia coli; E. coli CDC 435, NDM): >8 µg/mL
MIC (Escherichia coli; E. coli CDC 451, KPC): >8 µg/mL
MIC (Escherichia coli; E. coli CDC 503, ESBL/NDM): >8 µg/mL
MIC (Escherichia coli; E. coli MMX 5745, KPC): 8 µg/mL (≈ 22.1 µM)
MIC (Escherichia coli; E. coli MMX 5755, ESBL): 8 µg/mL (≈ 22.1 µM)
MIC (Escherichia coli; E. coli MMX 5756, ESBL): 4 µg/mL (≈ 11.1 µM)
MIC (Escherichia coli; E. coli MMX 5758, ESBL): 8 µg/mL (≈ 22.1 µM)
MIC (Acinetobacter baumannii; A. baumannii CDC 273, ESBL/OXA): >8 µg/mL
MIC (Acinetobacter baumannii; A. baumannii CDC 274, ESBL/OXA): 8 µg/mL (≈ 22.1 µM)
MIC (Acinetobacter baumannii; A. baumannii CDC 275, ESBL/OXA): 4 µg/mL (≈ 11.1 µM)
MIC (Acinetobacter baumannii; A. baumannii CDC 277, ESBL/OXA): 8 µg/mL (≈ 22.1 µM)
MIC (Acinetobacter baumannii; A. baumannii CDC 284, ESBL/OXA): 8 µg/mL (≈ 22.1 µM)
MIC (Acinetobacter baumannii; A. baumannii CDC 307, OXA): 8 µg/mL (≈ 22.1 µM)
MIC (Acinetobacter baumannii; A. baumannii CDC 308, ESBL/OXA): 4 µg/mL (≈ 11.1 µM)
MIC (Acinetobacter baumannii; A. baumannii CDC 311, OXA): 2 µg/mL (≈ 5.53 µM)
MIC (Acinetobacter baumannii; A. baumannii CDC 312, OXA): 2 µg/mL (≈ 5.53 µM)
MIC (Acinetobacter baumannii; A. baumannii CDC 313, ESBL/OXA): 2 µg/mL (≈ 5.53 µM)
MIC (Acinetobacter baumannii; A. baumannii NCTC 13304, OXA): 1 µg/mL (≈ 2.77 µM)
Structure (SMILES): C[C@H]1COc2c(N3CCN(C)CC3)c(F)cc3c(=O)c(C(=O)O)cn1c23 [LVX]
